Experimental data: publication PMC10175918 (Communications Biology, 2023)
Read-outs that look alike come from different tables or passages of the source.

How the values were obtained:
Assay in all cases: TGFα-shedding assay-based GPCR screening with chimeric Gα subunit proteins
Type in all cases: cell-based
348 GPCRs [1] = target: 348 GPCRs (Homo sapiens, UniProt P35372); settings: 10µM, Favipiravir 100μM
348 GPCRs [2] = target: T1, 348 GPCRs (Homo sapiens, UniProt O00574)
T1 construct: expressed in transfected cells; host or cells: HEK293A
T1 sequence (O00574 whole entry): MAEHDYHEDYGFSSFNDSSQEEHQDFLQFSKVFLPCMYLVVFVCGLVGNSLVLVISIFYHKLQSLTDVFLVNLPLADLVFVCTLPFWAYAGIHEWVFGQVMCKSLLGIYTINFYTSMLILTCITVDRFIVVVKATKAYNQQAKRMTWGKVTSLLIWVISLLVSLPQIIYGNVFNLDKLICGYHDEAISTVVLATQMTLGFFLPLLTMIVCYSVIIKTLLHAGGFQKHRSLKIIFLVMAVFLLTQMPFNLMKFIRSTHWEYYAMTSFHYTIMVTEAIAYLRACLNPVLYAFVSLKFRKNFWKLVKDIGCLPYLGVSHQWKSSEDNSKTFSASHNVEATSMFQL

348 GPCRs [3] = target: 348 GPCRs (Homo sapiens, UniProt Q9H228); settings: 10µM, Favipiravir 100μM
348 GPCRs (Homo sapiens, UniProt Q9H228), sequence (Q9H228 whole entry): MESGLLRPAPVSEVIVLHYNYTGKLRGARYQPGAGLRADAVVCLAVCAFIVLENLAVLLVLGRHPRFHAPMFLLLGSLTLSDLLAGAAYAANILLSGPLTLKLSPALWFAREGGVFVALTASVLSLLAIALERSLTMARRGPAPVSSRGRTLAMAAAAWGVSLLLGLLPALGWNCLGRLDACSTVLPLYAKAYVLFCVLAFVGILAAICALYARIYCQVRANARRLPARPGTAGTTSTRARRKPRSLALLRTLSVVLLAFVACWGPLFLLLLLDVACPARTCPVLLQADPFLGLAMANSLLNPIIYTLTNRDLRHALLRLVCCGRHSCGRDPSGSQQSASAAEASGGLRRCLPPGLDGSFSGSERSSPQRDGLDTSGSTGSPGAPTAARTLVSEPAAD

348 GPCRs [4] = target: T2, 348 GPCRs (Homo sapiens, UniProt Q8TDS7); settings: 10µM, Favipiravir 100μM
T2 construct: expressed in transfected cells; host or cells: HEK293A
T2 sequence (Q8TDS7 whole entry): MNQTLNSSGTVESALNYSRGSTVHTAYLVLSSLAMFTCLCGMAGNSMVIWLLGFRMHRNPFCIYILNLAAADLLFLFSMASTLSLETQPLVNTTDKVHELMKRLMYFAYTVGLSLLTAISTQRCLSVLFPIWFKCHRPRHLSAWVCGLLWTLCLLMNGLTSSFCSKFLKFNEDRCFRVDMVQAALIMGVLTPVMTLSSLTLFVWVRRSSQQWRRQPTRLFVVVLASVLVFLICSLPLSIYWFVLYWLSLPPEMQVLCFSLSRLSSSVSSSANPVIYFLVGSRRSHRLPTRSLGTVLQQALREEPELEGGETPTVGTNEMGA

348 GPCRs [5] = target: T3, 348 GPCRs (Homo sapiens, UniProt Q96P68)
T3 construct: expressed in transfected cells; host or cells: HEK293A

348 GPCRs [6] = target: T4, 348 GPCRs (Homo sapiens, UniProt P32239); settings: 10µM, Favipiravir 100μM
T4 sequence (P32239 1-447): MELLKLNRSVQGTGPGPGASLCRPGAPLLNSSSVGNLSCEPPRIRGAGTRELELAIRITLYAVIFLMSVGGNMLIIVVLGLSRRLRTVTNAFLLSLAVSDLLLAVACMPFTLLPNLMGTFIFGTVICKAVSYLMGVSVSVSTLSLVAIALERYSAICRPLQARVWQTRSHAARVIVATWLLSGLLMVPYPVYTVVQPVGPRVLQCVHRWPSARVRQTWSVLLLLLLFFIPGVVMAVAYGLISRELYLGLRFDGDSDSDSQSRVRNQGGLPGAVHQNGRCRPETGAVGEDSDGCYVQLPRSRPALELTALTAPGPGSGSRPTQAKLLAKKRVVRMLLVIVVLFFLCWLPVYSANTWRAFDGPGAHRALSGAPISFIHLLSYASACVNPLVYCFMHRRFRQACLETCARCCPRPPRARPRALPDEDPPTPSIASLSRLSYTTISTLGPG

348 GPCRs [7] = target: T5, 348 GPCRs (Homo sapiens, UniProt P46092); settings: 10µM, Favipiravir 100μM
T5 construct: expressed in transfected cells; host or cells: HEK293A
T5 sequence (P46092 1-362): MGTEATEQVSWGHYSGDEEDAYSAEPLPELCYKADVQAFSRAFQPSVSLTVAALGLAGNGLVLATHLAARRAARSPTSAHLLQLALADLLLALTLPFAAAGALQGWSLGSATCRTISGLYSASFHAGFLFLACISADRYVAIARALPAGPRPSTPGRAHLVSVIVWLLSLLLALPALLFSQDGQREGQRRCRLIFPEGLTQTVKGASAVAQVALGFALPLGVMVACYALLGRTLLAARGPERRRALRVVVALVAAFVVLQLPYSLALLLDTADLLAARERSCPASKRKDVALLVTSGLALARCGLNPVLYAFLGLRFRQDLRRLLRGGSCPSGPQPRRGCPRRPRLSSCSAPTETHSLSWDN

348 GPCRs [8] = target: T6, 348 GPCRs (Homo sapiens, UniProt Q8TDV2); settings: 10µM, Favipiravir 100μM
T6 construct: expressed in transfected cells; host or cells: HEK293A
T6 sequence (Q8TDV2 whole entry): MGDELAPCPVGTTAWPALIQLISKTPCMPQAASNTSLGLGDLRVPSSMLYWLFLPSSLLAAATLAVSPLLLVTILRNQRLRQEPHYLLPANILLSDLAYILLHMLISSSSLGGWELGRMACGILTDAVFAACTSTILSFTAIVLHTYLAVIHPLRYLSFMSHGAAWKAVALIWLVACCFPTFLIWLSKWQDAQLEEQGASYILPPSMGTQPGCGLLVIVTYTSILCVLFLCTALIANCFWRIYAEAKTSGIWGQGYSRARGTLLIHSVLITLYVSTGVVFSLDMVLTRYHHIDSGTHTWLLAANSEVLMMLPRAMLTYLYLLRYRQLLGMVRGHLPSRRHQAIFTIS

348 GPCRs [9] = target: T7, 348 GPCRs (Homo sapiens, UniProt Q9NYW2); settings: 10µM, Favipiravir 100μM
T7 construct: expressed in transfected cells; host or cells: HEK293A
T7 sequence (Q9NYW2 1-309): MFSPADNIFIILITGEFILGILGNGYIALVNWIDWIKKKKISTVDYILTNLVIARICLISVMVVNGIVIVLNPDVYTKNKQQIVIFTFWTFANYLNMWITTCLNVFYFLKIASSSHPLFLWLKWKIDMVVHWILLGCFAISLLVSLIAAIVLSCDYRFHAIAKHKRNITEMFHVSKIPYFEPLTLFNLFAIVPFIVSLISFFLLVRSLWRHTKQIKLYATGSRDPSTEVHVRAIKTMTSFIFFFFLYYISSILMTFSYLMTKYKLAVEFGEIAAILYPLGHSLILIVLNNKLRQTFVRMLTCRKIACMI

348 GPCRs [10] = target: T8, 348 GPCRs (Homo sapiens, UniProt O95838); settings: 10µM, Favipiravir 100μM
T8 construct: expressed in transfected cells; host or cells: HEK293A
T8 sequence (O95838 1-553): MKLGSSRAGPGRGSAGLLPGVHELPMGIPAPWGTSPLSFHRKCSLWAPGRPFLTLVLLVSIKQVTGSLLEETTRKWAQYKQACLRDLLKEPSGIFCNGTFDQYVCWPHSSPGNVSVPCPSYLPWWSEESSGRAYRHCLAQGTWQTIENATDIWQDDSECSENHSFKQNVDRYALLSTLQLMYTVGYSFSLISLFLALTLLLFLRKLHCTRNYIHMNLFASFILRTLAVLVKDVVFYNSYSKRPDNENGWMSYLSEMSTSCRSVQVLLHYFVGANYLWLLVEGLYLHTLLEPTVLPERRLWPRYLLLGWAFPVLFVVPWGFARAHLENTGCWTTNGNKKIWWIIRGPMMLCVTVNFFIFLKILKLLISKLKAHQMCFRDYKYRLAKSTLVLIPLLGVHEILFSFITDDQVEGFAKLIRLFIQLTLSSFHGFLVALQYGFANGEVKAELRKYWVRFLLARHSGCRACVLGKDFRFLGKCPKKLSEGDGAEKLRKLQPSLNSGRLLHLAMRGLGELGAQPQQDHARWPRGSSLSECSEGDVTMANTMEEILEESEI

348 GPCRs [11] = target: T9, 348 GPCRs (Homo sapiens, UniProt P50406); settings: 10µM, Favipiravir 100μM
T9 construct: expressed in transfected cells; host or cells: HEK293A
T9 sequence (P50406 whole entry): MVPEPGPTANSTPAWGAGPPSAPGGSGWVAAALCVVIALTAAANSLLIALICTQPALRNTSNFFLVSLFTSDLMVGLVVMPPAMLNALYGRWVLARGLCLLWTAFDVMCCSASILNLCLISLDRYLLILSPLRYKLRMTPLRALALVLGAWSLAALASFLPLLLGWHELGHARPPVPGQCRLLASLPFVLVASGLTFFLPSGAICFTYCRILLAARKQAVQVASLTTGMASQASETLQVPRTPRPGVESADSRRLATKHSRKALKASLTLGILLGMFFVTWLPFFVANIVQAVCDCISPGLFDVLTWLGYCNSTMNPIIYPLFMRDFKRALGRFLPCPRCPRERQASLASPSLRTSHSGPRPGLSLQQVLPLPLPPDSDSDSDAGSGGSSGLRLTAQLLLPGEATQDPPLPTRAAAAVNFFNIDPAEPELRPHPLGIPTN

[12] = OPRM1, read-out: % GPCR activation compared to TPA, OPRM1 (opioid receptor, mu 1 (MOR1))
[13] = read-out: % GPCR activation compared to TPA, GPCR CXCR6 (C-X-C motif chemokine receptor 6)
[14] = read-out: % GPCR activation compared to TPA, S1PR5 (sphingosine-1-phosphate receptor 5)
[15] = read-out: % GPCR activation compared to TPA, MRGPRD (MAS-related GPR, member D)
[16] = read-out: % GPCR activation compared to TPA, GPCR OXGR1 (oxoglutarate (alpha-ketoglutarate) receptor 1)
[17] = read-out: % GPCR activation compared to TPA, CCKBR (cholecystokinin B receptor)
[18] = read-out: % GPCR activation compared to TPA, CCR10 (C-C motif chemokine receptor 10)
[19] = read-out: % GPCR activation compared to TPA, GPR148 (G Protein-Coupled Receptor 148)
[20] = read-out: % GPCR activation compared to TPA, TAS2R8 (taste receptor, type 2, member 8)
[21] = read-out: % GPCR activation compared to TPA, GLP2R (glucagon like peptide 2 receptor)
[22] = read-out: % GPCR activation compared to TPA, 5-HT6 (5-hydroxytryptamine receptor 6)
[23] = GPCR CXCR6 (C-X-C motif chemokine receptor 6), read-out: % GPCR activation compared to TPA
[24] = S1PR5 (sphingosine-1-phosphate receptor 5), read-out: % GPCR activation compared to TPA
[25] = MRGPRD (MAS-related GPR, member D), read-out: % GPCR activation compared to TPA
[26] = GPCR OXGR1 (oxoglutarate (alpha-ketoglutarate) receptor 1), read-out: % GPCR activation compared to TPA
[27] = CCKBR (cholecystokinin B receptor), read-out: % GPCR activation compared to TPA
[28] = CCR10 (C-C motif chemokine receptor 10), read-out: % GPCR activation compared to TPA
[29] = GPR148 (G Protein-Coupled Receptor 148), read-out: % GPCR activation compared to TPA
[30] = TAS2R8 (taste receptor, type 2, member 8), read-out: % GPCR activation compared to TPA
[31] = GLP2R (glucagon like peptide 2 receptor), read-out: % GPCR activation compared to TPA
[32] = 5-HT6 (5-hydroxytryptamine receptor 6), read-out: % GPCR activation compared to TPA

348 GPCRs (Homo sapiens, UniProt P35372), sequence (P35372 whole entry): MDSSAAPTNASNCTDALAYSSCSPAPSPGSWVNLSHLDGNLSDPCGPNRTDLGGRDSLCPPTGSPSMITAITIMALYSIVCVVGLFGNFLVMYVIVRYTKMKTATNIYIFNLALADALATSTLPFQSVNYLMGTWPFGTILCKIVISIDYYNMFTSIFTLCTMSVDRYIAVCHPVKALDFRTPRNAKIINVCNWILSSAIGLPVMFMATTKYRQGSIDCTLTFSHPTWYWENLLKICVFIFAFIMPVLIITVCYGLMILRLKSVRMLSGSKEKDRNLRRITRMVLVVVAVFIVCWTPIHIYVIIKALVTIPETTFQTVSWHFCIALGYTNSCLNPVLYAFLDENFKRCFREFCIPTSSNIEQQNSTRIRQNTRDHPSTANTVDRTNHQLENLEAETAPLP

| Compound | activation at 10 µM (348 GPCRs [1]; [12]) | activation at 10 µM (348 GPCRs [2]; [13]) | activation at 10 µM (348 GPCRs [3]; [14]) | activation at 100 µM (348 GPCRs [4]; [15]) | activation at 10 µM (348 GPCRs [5]; [16]) | activation at 100 µM (348 GPCRs [6]; [17]) | activation at 100 µM (348 GPCRs [7]; [18]) | activation at 100 µM (348 GPCRs [8]; [19]) | activation at 10 µM (348 GPCRs [9]; [20]) | activation at 10 µM (348 GPCRs [10]; [21]) | activation at 100 µM (348 GPCRs [11]; [22]) | activation at 10 µM (348 GPCRs [2]; [23]) | activation at 10 µM (348 GPCRs [3]; [24]) | activation at 100 µM (348 GPCRs [4]; [25]) | activation at 100 µM (348 GPCRs [6]; [27]) | activation at 100 µM (348 GPCRs [7]; [28]) | activation at 100 µM (348 GPCRs [8]; [29]) | activation at 10 µM (348 GPCRs [9]; [30]) | activation at 10 µM (348 GPCRs [10]; [31]) | activation at 100 µM (348 GPCRs [11]; [32]) | also measured |
| --- | --- | --- | --- | --- | --- | --- | --- | --- | --- | --- | --- | --- | --- | --- | --- | --- | --- | --- | --- | --- | --- |
| CC(C)OC(=O)[C@H](C)N[P@](=O)(OC[C@H]1O[C@@H](n2ccc(=O)[nH]c2=O)[C@](C)(F)[C@@H]1O)Oc1ccccc1 [sofosbuvir] | -0.878% | -0.824% | -0.326% | 4.12% | 1.77% | -2.44% | 0.131% | -1.48% | 0.759% | -0.662% | -1.12% | – | – | – | – | – | – | – | – | – | – |
| CC(C)C(=O)OC[C@H]1O[C@@H](n2ccc(NO)nc2=O)[C@H](O)[C@@H]1O [molnupiravir] | -3.97% | – | – | – | – | – | – | – | – | – | – | 0.979% | -0.945% | -3.12% | -2.83% | 0.0221% | -3.32% | -0.417% | 0.598% | -0.864% | activation at 10 µM (348 GPCRs [5]; [26]): 0.239% |
| NC(=O)c1nc(F)cnc1O [favipiravir, 6-fluoro-3-hydroxy-2-pyrazinecarboxamide] | – | – | – | – | – | – | – | – | – | – | – | – | 1.49% | -0.473% | 4.12% | -6.03% | -3.11% | -0.549% | 2.97% | -1.66% | activation at 10 µM (348 GPCRs [1]; OPRM1, OPRM1 (opioid receptor, mu 1 (MOR1)), read-out: % GPCR activation compared to TPA): -1.89%; activation at 100 µM (348 GPCRs [2]; GPCR CXCR6 (C-X-C motif chemokine receptor 6), 100μM, read-out: % GPCR activation compared to TPA): -1.02%; activation at 100 µM (348 GPCRs [5]; GPCR OXGR1 (oxoglutarate (alpha-ketoglutarate) receptor 1), 100μM, read-out: % GPCR activation compared to TPA): -1.07% |
| N#C[C@@]1(c2ccc3c(N)ncnn23)O[C@H](CO)[C@@H](O)[C@H]1O [GS441524] | -2.75% | – | – | – | – | – | – | – | – | – | – | -0.956% | -0.465% | -4.53% | 6.14% | -6.97% | -2.05% | 0.391% | 1.04% | -0.422% | activation at 10 µM (348 GPCRs [5]; [26]): -0.462% |
| CCC(CC)COC(=O)[C@H](C)N[P@](=O)(OC[C@H]1O[C@@](C#N)(c2ccc3c(N)ncnn23)[C@H](O)[C@@H]1O)Oc1ccccc1 [remdesivir] | -2.36% | 0.837% | -1.2% | 0.905% | 0.444% | 7.72% | -7.76% | -2.35% | 0.189% | 1.76% | 0.785% | – | – | – | – | – | – | – | – | – | – |
